Numbered stars: 1 amine (or outer) side, 2 acyl side, 3 side chain; on linkers, the order of the positions; unused ones are H or OH. Bridge positions count the residues as written; N and C are the ends. Square brackets hold non-standard residues; d marks the D form. Peptide text beside a SMILES is read from it. X1 = CC(=O)NC(C(=O)OC(C(C)C)C(N[*:1])C(=O)[*:2])C(O)C(C)C; PhLac = O=C(O)[CH](O)Cc1ccccc1; NMeT = CN[CH](C(=O)O)[CH](C)O; NMeA = CN[CH](C)C(=O)O; NMeDha = C=C(NC)C(=O)O
Experiments:
MEG01 cells [1] = test: cAMP assay in MEG01 cells; assay type: cell-based, human; settings: for PAGln induced intracellular cAMP production after ADR inhibitors: PAGln 100 μM, 5 min exposure, inhibitor 10 μM
Protocol: Real-time (RT) PCR in MEG01 cells: Total RNA was isolated from MEG01 cells following TRIZOL RNA isolation protocol post 40 h of siRNA transfection. […] Real time (RT) PCR was carried out following TaqMan Gene Expression Assays protocol using RT primers and probes of ADRA2A (assay Id Hs01099503_s1), ADRA2B (assay Id Hs00265081 s1) and ADRB2 (assay Id Hs00240532_s1) from ThermoFisher Scientific. cAMP assay in MEG01, Platelets and HEK293 cells: Intracellular cAMP levels were measured using CatchPoint Cyclic-AMP Fluorescent Assay Kit from molecular devices (Cat. R8089). Briefly, MEG01 cells were washed with 1×HBSS buffer with HEPES (20 mM; pH 7.4) and re-suspended in stimulation buffer (1×HBSS, HEPES (20 mM); pH 7.4, IBMX (0.5 mM), Rolipram (0.1 mM) and BSA (0.1%)). The cells were further seeded into 96 well cell culture plates with a density of ˜100 k cells per well in 100 μL stimulation buffer. Similarly, human washed platelets re-suspended very gently in stimulation buffer and seeded into a 96-well cell culture plates with ˜4-6 million platelets per well in 100 μL stimulation buffer. Both the MEG01 cells and platelets were kept thereafter at 37° C. incubator for 10 min before addition of the inhibitors or test compounds. Following incubation with stimulation buffer, 10 μL (10× concentration) of modulators/inhibitors (when necessary) were added and kept for 15 min at 37° C. […] The test compounds were made in buffer T (1×HBSS, HEPES (20 mM); pH 7.4, IBMX (0.5 mM) and Rolipram (0.1 mM)). The reaction was stopped by adding 50 μL of lysis buffer (provided in the kit CatchPoint Cyclic-AMP Fluorescent Assay Kit Cat. R8089-Molecular Devices), further added with IBMX (0.5 mM) and Rolipram (0.1 mM)) and agitated for 10 min in a plate shaker to facilitate cell lysis. Lysed cells are immediately proceeded to cAMP assay. For the quantification of cAMP, the lysed sample (40 μL), buffer control and cAMP calibrators were added in appropriate wells of a 96-well clear bottom, black wall cAMP assay plates (provided in the kit). Thereafter, reconstituted rabbit anti-cAMP antibody (40 μL) was added to all the wells and mix for 5 min on a plate shaker to ensure mixing. In the next step, reconstituted HRP-cAMP conjugate (40 μL) was added to every well, mixed properly and kept at room temperature for 2 h. The plate contents were aspirated thereafter and washed with wash buffer (300 μL (provided in the kit)) 4 times. Spotlight red substrate (provided in the kit) was added to each well minimizing the time between starting and finishing in dark. The plate was covered with aluminum foil and left at room temperature for at least 10 min before reading fluorescence intensity in a FlexStation 3 Multi-Mode Microplate Reader-Molecular devices. […] For cAMP assay in adherent cell lines, parental HEK293, and β2-HEK293 (stable) cells were seeded into 96-well cell culture microplates with approximately 50 k cells per well in DMEM (100 μL) media supplemented with FBS (10%), penicillin (100 U/mL) and streptomycin (100 μg/mL) in a humidified atmosphere at 37° C. in 5% CO2. Cells were grown for 24 h before proceeding for cAMP experiment following similar method as described for MEG01 cells. Intracellular Ca^2+ measurement: Intracellular Ca^2+ in MEG01, HEL92.1.7, parental HEK293, β2-HEK293 (stable) cells, empty vector (EV) transfected HEK293 cells, ADRA2A transfected HEK293 cells and in α2B-HEK293 stable cells was measured using FLIPR Calcium 5 Assay Kit-Molecular devices (Cat. R8186). […]

washed human platelets = test: cAMP assay in washed human platelets; assay type: cell-based
Protocol: Real-time (RT) PCR in MEG01 cells: Total RNA was isolated from MEG01 cells following TRIZOL RNA isolation protocol post 40 h of siRNA transfection. […] Real time (RT) PCR was carried out following TaqMan Gene Expression Assays protocol using RT primers and probes of ADRA2A (assay Id Hs01099503_s1), ADRA2B (assay Id Hs00265081 s1) and ADRB2 (assay Id Hs00240532_s1) from ThermoFisher Scientific. cAMP assay in MEG01, Platelets and HEK293 cells: Intracellular cAMP levels were measured using CatchPoint Cyclic-AMP Fluorescent Assay Kit from molecular devices (Cat. R8089). Briefly, MEG01 cells were washed with 1×HBSS buffer with HEPES (20 mM; pH 7.4) and re-suspended in stimulation buffer (1×HBSS, HEPES (20 mM); pH 7.4, IBMX (0.5 mM), Rolipram (0.1 mM) and BSA (0.1%)). The cells were further seeded into 96 well cell culture plates with a density of ˜100 k cells per well in 100 μL stimulation buffer. Similarly, human washed platelets re-suspended very gently in stimulation buffer and seeded into a 96-well cell culture plates with ˜4-6 million platelets per well in 100 μL stimulation buffer. Both the MEG01 cells and platelets were kept thereafter at 37° C. incubator for 10 min before addition of the inhibitors or test compounds. Following incubation with stimulation buffer, 10 μL (10× concentration) of modulators/inhibitors (when necessary) were added and kept for 15 min at 37° C. […] For the quantification of cAMP, the lysed sample (40 μL), buffer control and cAMP calibrators were added in appropriate wells of a 96-well clear bottom, black wall cAMP assay plates (provided in the kit). […] The plate was covered with aluminum foil and left at room temperature for at least 10 min before reading fluorescence intensity in a FlexStation 3 Multi-Mode Microplate Reader-Molecular devices. […] Intracellular Ca^2+ measurement: Intracellular Ca^2+ in MEG01, HEL92.1.7, parental HEK293, β2-HEK293 (stable) cells, empty vector (EV) transfected HEK293 cells, ADRA2A transfected HEK293 cells and in α2B-HEK293 stable cells was measured using FLIPR Calcium 5 Assay Kit-Molecular devices (Cat. R8186). […]

MEG01 cells [2] = test: Dynamic mass redistribution (DMR) in MEG01 cells; assay type: cell-based, human; settings: for DMR response to ATP after ADR inhibitors: ATP 50 μM; for DMR response to ATP after ADR inhibitors / DMR response of isoproterenol (ISO) after ADR inhibitors / PAGln-induced DMR response after ADR inhibitors: inhibitor 10 μM; for DMR response of isoproterenol (ISO) after ADR inhibitors: ISO 10 μM; for PAGln-induced DMR response after ADR inhibitors: 30 min
Protocol: (§1) Before proceeding for the experiments, cells were subjected to overnight incubation in reduced serum media opti-MEM. […] The cells were briefly centrifuged at room temperature at low speed (100 g for 10-15 sec) to allow settling down the cells at the bottom of the plate. After that, cells were allowed to temperature equilibrate for 1 h at room temperature prior to run DMR measurement. Firstly, basal DMR responses were graphed for around 15 min to obtain a baseline read that defines the zero level and also ensures the signal is stable. […] DMR response signal was recorded for 60-90 minutes post compound of interest addition.

HEL92.1.7 cells = test: Dynamic mass redistribution (DMR) in HEL92.1.7 cells; assay type: cell-based, human
Protocol: as §1

α2B ADR = target: T1, α2B ADR (Homo sapiens, UniProt P18089); test: DMR in α2B-HEK293 (stable) cells; assay type: cell-based; settings: vs parental HEK293; PAGln 100 μM, B-HT933 50 μM
T1 construct: expressed in transfected cells
T1 sequence (P18089 1-450): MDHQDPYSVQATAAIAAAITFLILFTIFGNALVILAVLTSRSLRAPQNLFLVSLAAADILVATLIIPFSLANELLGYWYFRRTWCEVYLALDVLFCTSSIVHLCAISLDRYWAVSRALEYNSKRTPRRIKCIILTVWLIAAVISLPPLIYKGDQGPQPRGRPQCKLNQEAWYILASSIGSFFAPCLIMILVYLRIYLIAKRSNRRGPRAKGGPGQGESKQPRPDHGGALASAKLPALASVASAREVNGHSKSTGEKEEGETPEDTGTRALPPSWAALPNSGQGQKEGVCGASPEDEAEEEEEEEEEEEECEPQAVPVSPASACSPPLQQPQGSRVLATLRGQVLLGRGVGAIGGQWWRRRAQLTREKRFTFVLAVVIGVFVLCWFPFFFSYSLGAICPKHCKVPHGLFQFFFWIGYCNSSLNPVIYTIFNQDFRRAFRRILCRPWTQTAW

α2A ADR = target: T2, α2A ADR (Homo sapiens, UniProt P08913); test: DMR in α2A-HEK293 (transient) cells; assay type: cell-based; settings: vs parental HEK293; PAGln 100 μM, B-HT933 50 μM
T2 construct: DYK (FLAG, DYKDDDDK) (N); host or cells: HEK293 (transient, Lipofectamine 3000)
T2 sequence (P08913 1-465): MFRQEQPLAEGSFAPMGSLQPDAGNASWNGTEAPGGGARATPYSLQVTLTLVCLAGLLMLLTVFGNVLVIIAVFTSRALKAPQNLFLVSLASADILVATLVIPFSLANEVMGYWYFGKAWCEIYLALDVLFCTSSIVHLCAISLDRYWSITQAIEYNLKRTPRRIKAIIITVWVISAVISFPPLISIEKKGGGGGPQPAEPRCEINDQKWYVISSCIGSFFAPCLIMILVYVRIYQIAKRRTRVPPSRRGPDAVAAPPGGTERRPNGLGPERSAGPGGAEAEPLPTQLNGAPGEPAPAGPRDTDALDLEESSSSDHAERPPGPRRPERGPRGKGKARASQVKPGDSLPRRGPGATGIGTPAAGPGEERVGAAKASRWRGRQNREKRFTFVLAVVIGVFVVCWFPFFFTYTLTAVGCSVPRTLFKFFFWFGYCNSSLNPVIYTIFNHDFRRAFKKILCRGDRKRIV
Protocol: The cells were grown in DMEM (100 μL) media supplemented with FBS (10%), penicillin (100 U/mL) and streptomycin (100 μg/mL) in a humidified atmosphere at 37° C. in 5% CO2 for 1 day before proceeding for the DMR experiments. For gain of function studies of α2A ADR, parental HEK293 cells were transfected with pcDNA3.1(+)-N-DYK empty vector or with pcDNA3.1(+)-ADRA2A-N-DYK clone (clone id: OHu19050C-GenScript) using Lipofactamine 3000 Transfection kit-Invitrogen (Cat. L3000008). DMR studies were performed on transiently transfected cells after 2 days post transfection. Prior to run the DMR experiment, cells were washed with 1×HBSS buffer with HEPES (20 mM, pH 7.4) and allowed to temperature equilibrate for 1 h at room temperature in 100 μL of the same buffer. Basal DMR response were graphed for around 15 min to obtain a baseline read that defines the zero level and also ensures the signal is stable.

[3] = tested on: human platelet rich plasma (PRP); test: Platelet aggregometry in platelet rich plasma; assay type: cell-based; settings: inhibitor 10 μM; PAGln 100 μM; ADP 2 μM
Protocol: ADP (up to 4 μM), TRAP6 (up to 10 μM) and collagen (up to 1.0 μg/mL) were used as indicated to initiate aggregation with constant stirring (600 rpm).

Row | SMILES | intracellular cAMP production after ISO treatment, with ADR inhibitors (MEG01 cells [1]) | PAGln induced intracellular cAMP production after ADR inhibitors (MEG01 cells [1]) | DMR response to ATP after ADR inhibitors (MEG01 cells [2]) | DMR response of isoproterenol (ISO) after ADR inhibitors (MEG01 cells [2]) | PAGln-induced DMR response after ADR inhibitors (MEG01 cells [2]; PAGln 100 μM) | also measured
1 | Cc1ccc(OCC(O)C(C)NC(C)C)c2c1CCC2 (stereo not shown) [ICI118,551] | reduced | inhibited PAGln (5 min exposure) induced intracellular cAMP production | remained unchanged | diminished | substantially reduced | intracellular cAMP production after ISO treatment, with ADR inhibitors (washed human platelets): reduced; PAGln induced intracellular cAMP production after ADR inhibitors (washed human platelets; PAGln 5 min exposure): inhibited PAGln (5 min exposure) induced intracellular cAMP production
2 | C=C1C(=O)NC(C)C(=O)N(C)C(C)C(=O)NC(C(OC(=O)C(NC(C)=O)C(O)C(C)C)C(C)C)C(=O)N(C)C(C(C)OC)C(=O)OC(C)C(NC(C)=O)C(=O)OC(Cc2ccccc2)C(=O)N1C (stereo not shown) [YM-254890] (Ac-T[PhLac][NMeDha]A[NMeA][X1][NMeT](Me); ester 1-C; configuration not given here) | – | – | – | – | – | PAGln induced DMR response after G-protein modulators (HEL92.1.7 cells): significant reduction in PAGln induced DMR response
3 | CN=c1nc(-c2ccccc2)n(-c2ccccc2)s1 [SCH-202676] | – | – | – | – | – | PAGln-evoked cAMP production after GPCR modulators (MEG01 cells [1]; pretreatment with modulator): inhibited PAGln-evoked cAMP production; PAGln-evoked cAMP production after GPCR modulators (washed human platelets; pretreatment with modulator): inhibited PAGln-evoked cAMP production; PAGln-induced DMR response after G-protein modulators (MEG01 cells [2]; PAGln 100 μM, PTX 100 ng/mL, CTX 1 μg/mL, YM-254890 0.5 μM, SCH-202676 1 μM): significantly reduced
4 | CCN1CCc2nc(N)oc2CC1 [B-HT933] | – | – | – | – | – | agonist-evoked DMR response (α2B ADR): elevated B-HT933-elicited DMR response; agonist-evoked DMR response (α2A ADR): elevated B-HT933-elicited DMR response
5 | CC(C)NCC(O)COc1cccc2ccccc12 (stereo not shown) [propranolol] | reduced | inhibited PAGln (5 min exposure) induced intracellular cAMP production | remained unchanged | diminished | substantially reduced | PAGln induced hyperresponsiveness of platelet aggregation [3]: attenuated the PAGln induced hyperresponsiveness

From patent US20230091848A1, “DISEASE DETECTION AND TREATMENT BASED ON PHENYLACETYL GLUTAMINE LEVELS” (The Cleveland Clinic Foundation, priority 2020, published 2023)
